From article PMC9962638, “Integrating Siderophore Substructures in Thiol-Based Metallo-β-Lactamase Inhibitors” (Molecules, 2023)

Molecular target: T1, NDM-1 (Klebsiella pneumoniae, UniProt C7C422)
T1 construct: gene blaNDM-1; recombinant, expressed in E. coli
Assay: fluorescence enzyme assay, fluorocillin hydrolysis
Type: biochemical
Source text: fluorescence enzyme assay, fluorocillin hydrolysis on NDM-1

T1 sequence (C7C422 29-270 limits assumed): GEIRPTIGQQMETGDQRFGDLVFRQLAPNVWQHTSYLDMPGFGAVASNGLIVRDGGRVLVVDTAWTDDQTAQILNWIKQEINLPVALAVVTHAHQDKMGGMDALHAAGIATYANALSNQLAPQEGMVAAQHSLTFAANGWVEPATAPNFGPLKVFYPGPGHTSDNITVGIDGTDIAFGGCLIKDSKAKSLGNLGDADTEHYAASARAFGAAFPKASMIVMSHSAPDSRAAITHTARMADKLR

Structure (SMILES)	IC50 [nM]
COc1ccc(CCC(=O)N2CCN(C(=O)[C@H](C)CS)[C@@H](C(=O)O)C2)cc1OC [compound 18, (R)-4-(3-(3,4-dimethoxyphenyl)propanoyl)-1-((S)-3-mercapto-2-methylpropanoyl)piperazine-2-carboxylic acid]	220 ± 16
O=C(O)[C@H]1CCCCN1C(=O)C(CS)Cc1cccc(O)c1O (stereo partly drawn) [compound 2, (2R)-1-(2-(2,3-dihydroxybenzyl)-3-mercaptopropanoyl)piperidine-2-carboxylic acid]	4300 ± 440
C[C@H](CS)C(=O)N1CCN(C(=O)CCc2ccc(O)c(O)c2)C[C@@H]1C(=O)O [compound 3, (R)-4-(3-(3,4-dihydroxyphenyl)propanoyl)-1-((S)-3-mercapto-2-methylpropanoyl)piperazine-2-carboxylic acid]	130 ± 17
COc1cccc(CC(CS)C(=O)N2CCCC[C@@H]2C(=O)O)c1OC (stereo partly drawn) [compound 12, (2R)-1-(2-(2,3-dimethoxybenzyl)-3-mercaptopropanoyl)piperidine-2-carboxylic acid]	1900 ± 270
